Source: US9248148B2, “Mono (iron hydroxypyrone) and combination (iron hydroxypyrone and GI inflammation inhibiting agents) compositions for anaemia or H. pylori infections” (Iron Therapeutics Holdings AG, priority 2008, dated 2016)

Test system: anaemia due to blood loss
Assay: Patient 1: anaemia after surgical blood loss, treated while continuing Gaviscon (acid reducer)
Excerpt: The patient had been taking Gaviscon™ which contains potassium bicarbonate as an acid reducer to reduce acid reflux. […] They continued to take Gaviscon™ but was also given ferrous sulphate tablets for their anaemia.

## O=S(=O)([O-])[O-].[Fe+2] [ferrous sulphate]
Patient 1, continuing Gaviscon (potassium bicarbonate)
  correction of anaemia: failed to correct their anaemia
Patient 1, continuing Gaviscon, maltol and ferrous gluconate at 45 mg/day
  tolerability / side effects: serious side effects of gastric intolerance and severe headaches
